Values after ≈ are worked out from the molar mass of the structure shown. Values joined by “and” are separate entries in the source; they are usually repeats but may differ in a detail not shown here. Equal entries are not always repeated. *1 amine or outer side, *2 acyl side, *3 side chain or, on linkers, in order; H or OH if unused. Where a SMILES comes first, the peptide text is derived from it. Bridges are numbered along the chain shown (N, C = ends). [ ]: non-standard residue; d: D form. X1 = CC(=O)NC(C(=O)OC(C(C)C)C(N[*:1])C(=O)[*:2])C(O)C(C)C; PhLac = O=C(O)[CH](O)Cc1ccccc1; NMeT = CN[CH](C(=O)O)[CH](C)O; NMeA = CN[CH](C)C(=O)O; NMeDha = C=C(NC)C(=O)O

Consider four compounds from PMC10165273, “Itch receptor MRGPRX4 interacts with the receptor activity–modifying proteins” (The Journal of Biological Chemistry, 2023).

The test system of test [1] is mock-transfected HEK293T cells. Briefly: IP1 accumulation, mock-transfected cells. In kind it is cell-based, human. Further details: IP1 Basal / IP1 span / IP1 Emax / IP1 accumulation, dose-response (Figure 1a) / IP1 accumulation with YM (Figure 1c) / IP1 accumulation: unit not given here. Conditions: for IP1 Basal / IP1 Emax / IP1 span: Mock. On the procedure:
(§1) HEK293T cells were transfected with 1 pg/cell of MRGPRX4 DNA, and the amount of DNA was kept constant at 2 pg/cell with pcDNA3.1(+) empty vector, unless otherwise specified. Twenty four hours after transfection, IP1 assay was performed as previously described ([51]). When applicable, cells were treated with 1 μM YM254890 (YM) or different concentrations of U73122 for 1 h prior to addition of agonist or buffer. After incubation for 2 h, HTRF reagents and IP1 calibration standards were added and incubated for 2 h in the dark at room temperature. Time-resolved fluorescence signals were read on the BioTek Synergy NEO-TRF Hybrid multi-mode reader (BioTek Instruments). All data were carried out in three independent experiments with three technical replicate each.
(§2) Validation of CALCRL constructs was assayed by cotransfecting HEK293T cells with different tagged versions of CALCRL alone or with each RAMP and with the promiscuous Gqs5 Gq chimera protein, at a respective DNA ratio of 1:1:0.5. Gqs5 is an engineered Gq protein containing the last five amino acid residues of Gs, which allows Gs-coupled GPCRs to signal through Gq downstream signaling pathways ([55]). The homogenous transfection method described above was used for all DNA mixes. CALCRL:RAMP2:Gqs5-transfected cells served as positive control for RAMP functionality.
(§3) Data reduction, standard calibration, and transformation of HTRF data were performed as previously described ([51]). Normalized IP1 values were calculated relative to the unstimulated mock-transfected cells (set to 0%) and fully stimulated MRGPRX4 (alone if applicable) (set to 100%).

Another test addresses T1, CALCRL (Homo sapiens, UniProt Q16602).
T1 construct: 5-HT3a receptor signal peptide (X1) (N); expressed in transfected cells; host or cells: HEK293T
Briefly: IP1 accumulation, CALCRL alone with Gqs5. Format: cell-based. As for the experimental part:
as §2, §3

The next test concerns the target T2, CALCRL + RAMP3 (Homo sapiens, UniProt O60896+Q16602).
T2 construct: 5-HT3a receptor signal peptide (X1) (N); expressed in transfected cells; host or cells: HEK293T
Briefly: IP1 accumulation, CALCRL with RAMP3 and Gqs5. In kind it is cell-based. As for the experimental part: as §2, §3

The target in another test is T3, MRGPRX4 (Homo sapiens, UniProt Q96LA9).
T3 construct: expressed in transfected cells; host or cells: HEK293T
T3 sequence (Q96LA9 whole entry): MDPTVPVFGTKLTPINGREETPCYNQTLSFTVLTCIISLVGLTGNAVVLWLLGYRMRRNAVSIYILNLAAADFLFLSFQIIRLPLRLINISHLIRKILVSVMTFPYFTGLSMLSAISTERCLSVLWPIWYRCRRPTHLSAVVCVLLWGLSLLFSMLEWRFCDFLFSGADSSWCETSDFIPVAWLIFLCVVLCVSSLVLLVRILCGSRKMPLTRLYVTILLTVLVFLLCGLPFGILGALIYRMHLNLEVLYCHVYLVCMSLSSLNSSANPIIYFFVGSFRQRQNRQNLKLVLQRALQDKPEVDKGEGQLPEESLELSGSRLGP
Briefly: IP1 accumulation HTRF assay, MRGPRX4. On the set-up: key to IP1 Basal / IP1 accumulation with YM (Figure 1c) / response to agonist, MRGPRX4 / IP1 accumulation: % IP1: unstimulated mock-transfected = 0%, fully stimulated MRGPRX4 = 100%. The settings on record: for effect on nateglinide and DCA IP1 responses: inhibitor pretreatment 1 h (Fig. S1D-E); for effect on MRGPRX4 basal IP1 activity: no agonist (Figs. 1C and S1E); for IP1 accumulation with YM (Figure 1c): YM 1 µM, no agonist. Format: cell-based. As for the experimental part:
as §1
(§4) For characterization of the Tet-On Nluc-HT7-MRGPRX4-GFP10-1D4 construct, HEK293T cells were transfected as previously described with some modifications. Dox dose-response of NLuc-HT7-MRGPRX4-GFP10-1D4 DNA titration was assayed by transfecting HEK293T cells with either 1 or 2 pg/cell of NLuc-HT7-MRGPRX4-GFP10-1D4 construct. Receptor expression was induced 4 h after transfection with addition of different concentrations of dox for 20 h. For the RAMP DNA titration assay, cells were cotransfected with a constant amount of 1 pg/cell of NLuc-HT7-MRGPRX4-GFP10-1D4 DNA and 1, 0.75, 0.5, or 0 pg/cell of each HA-RAMP-OLLAS with the homogenous transfection method. Four hours after transfection, receptor expression was induced with addition of 1000 ng/ml dox. Twenty hours after induction, IP1 assay was performed.
as §3
A general note: Time-resolved FRET reads energy transfer from a long-lived donor to a nearby acceptor.

The test system of a further test is Tet-On MRGPRX4. Briefly: dox-induced total receptor expression, Nano-Glo luminescence. In kind it is cell-based, human. The settings on record: normalized total luminescence (Fig. S5I); for EC50: Homo sapiens. As for the experimental part:
as §4
HEK293T cells were transfected with 1 pg/cell of Tet-On FLAG-NLuc-HT7-MRGPRX4-GFP10-1D4 alone or coexpressed with 0.7, 0.5, 0.3, or 0.1 pg/cell of each RAMP, and expression was induced 4 h after transfection with 1000 ng/ml dox. HEK293T cells transfected with 1 pg/cell of Tet-On CALCRL alone or with 0.5 pg/cell of RAMP2 served as controls. Twenty hours after transfection, media was replaced with BRET buffer. First, the HT7-tagged GPCR was labeled with “pulse” of 100 nM HaloTag Alexa Fluor 660 (cell impermeable, emission 690 nm) for 2 h at 16 °C in the dark. Next, a chase step was performed by adding 100 nM HaloTag 618 (cell permeable, emission 620 nm) for 2 h at 16 °C in the dark. Lastly, Nano-Glo Luciferase assay reagent was prepared per manufacturer’s instructions. Optimal dosage of dox was determined by selecting the concentration at the plateau from a dox dose-response experiment, in which dox-induced expression was assayed with the additional of Nano-Glo Luciferase assay reagent (Fig. S5I).
Data were acquired by measuring the luminescence at 460, 618, and 690 nm in kinetics mode on a SpectraMax i3X at 37 °C. The obtained emission intensity values were corrected, normalized, plotted against each other, and fitted to a linear equation to generate a scaling factor that was then used to calculate and graph the percentage surface labeling. Experiments were conducted in biological triplicate with three technical replicates each. The corrected 690/460 BRET ratio was normalized to the mean of MRGPRX4 alone (+dox). Similarly, total expression was normalized to the mean of the 460 nm luminescence for MRGPRX4 alone (+dox).

[2] abbreviates: HA-CALCRL-1D4 series (Fig. S4J-L).
Setting [3] is: HA-CALCRL-GFP10-1D4 series (Fig. S4G-I).
Setting [4] is: HA-CALCRL-1D4 alone (Fig. S4J-L).
[5] abbreviates: HA-CALCRL-GFP10-1D4 alone (Fig. S4G-I).
The mark [6] stands for this setting: HA-CALCRL-1D4 + FLAG-RAMP3-OLLAS (Fig. S4J-L).
The mark [7] stands for this setting: HA-CALCRL-1D4 + HA-RAMP3-OLLAS (Fig. S4J-L).
[8] abbreviates: HA-CALCRL-GFP10-1D4 + FLAG-RAMP3-OLLAS (Fig. S4G-I).
Setting [9] is: HA-CALCRL-GFP10-1D4 + HA-RAMP3-OLLAS (Fig. S4G-I).
The mark [10] stands for this setting: Tet-On MRGPRX4+RAMP2 (DNA ratio 1:0.5).

T2 sequence (Q16602 23-461): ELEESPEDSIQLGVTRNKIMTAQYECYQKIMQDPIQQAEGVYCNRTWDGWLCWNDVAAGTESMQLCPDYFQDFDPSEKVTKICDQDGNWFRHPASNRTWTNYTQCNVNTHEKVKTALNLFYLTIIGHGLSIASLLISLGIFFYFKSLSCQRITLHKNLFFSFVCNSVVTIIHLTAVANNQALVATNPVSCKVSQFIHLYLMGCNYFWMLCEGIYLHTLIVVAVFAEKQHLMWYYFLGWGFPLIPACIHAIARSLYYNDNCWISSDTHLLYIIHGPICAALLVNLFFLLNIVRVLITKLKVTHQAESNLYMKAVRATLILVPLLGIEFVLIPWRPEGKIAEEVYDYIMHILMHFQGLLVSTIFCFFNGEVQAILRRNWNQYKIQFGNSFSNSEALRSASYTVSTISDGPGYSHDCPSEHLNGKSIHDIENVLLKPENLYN
T2 sequence (O60896 28-148 limits assumed): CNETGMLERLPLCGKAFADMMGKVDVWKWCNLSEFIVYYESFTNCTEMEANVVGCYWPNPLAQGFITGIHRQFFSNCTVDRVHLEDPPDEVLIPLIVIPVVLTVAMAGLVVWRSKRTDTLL
T1 sequence (Q16602 23-461): as the sequence (Q16602 23-461) above

As for `CC[C@H](C)[C@H](NC(=O)[C@H](CCC(N)=O)NC(=O)[C@H](Cc1c[nH]cn1)NC(=O)[C@H](C)NC(=O)[C@H](CC(C)C)NC(=O)[C@H](CCCCN)NC(=O)[C@H](CCC(N)=O)NC(=O)[C@@H](NC(=O)[C@@H](NC(=O)[C@@H]1CSSC[C@H](NC(=O)CNC(=O)[C@H](Cc2ccccc2)NC(=O)[C@H](CO)NC(=O)[C@H](CCCNC(=N)N)NC(=O)[C@H](CC(C)C)NC(=O)CNC(=O)[C@H](CCC(N)=O)NC(=O)[C@H](Cc2ccccc2)NC(=O)[C@H](CC(N)=O)NC(=O)[C@H](CC(N)=O)NC(=O)[C@H](CCSC)NC(=O)[C@H](CO)NC(=O)[C@H](CCC(N)=O)NC(=O)[C@H](CCCNC(=N)N)NC(=O)[C@@H](N)Cc2ccc(O)cc2)C(=O)N[C@@H](CCCNC(=N)N)C(=O)N[C@@H](Cc2ccccc2)C(=O)NCC(=O)N[C@@H]([C@@H](C)O)C(=O)N1)[C@@H](C)O)C(C)C)C(=O)N[C@@H](Cc1ccc(O)cc1)C(=O)N[C@@H](CCC(N)=O)C(=O)N[C@@H](Cc1ccccc1)C(=O)N[C@H](C(=O)N[C@@H](CC(=O)O)C(=O)N[C@@H](CCCCN)C(=O)N[C@@H](CC(=O)O)C(=O)N[C@@H](CCCCN)C(=O)N[C@@H](CC(=O)O)C(=O)N[C@@H](CC(N)=O)C(=O)N[C@H](C(=O)N[C@@H](C)C(=O)N1CCC[C@H]1C(=O)N[C@@H](CCCNC(=N)N)C(=O)N[C@@H](CO)C(=O)N[C@@H](CCCCN)C(=O)N[C@H](C(=O)N[C@@H](CO)C(=O)N1CCC[C@H]1C(=O)N[C@@H](CCC(N)=O)C(=O)NCC(=O)N[C@@H](Cc1ccc(O)cc1)C(N)=O)[C@@H](C)CC)C(C)C)[C@@H](C)O` [Adrenomedullin], the “IP1 Basal” value is reported as 0.9133 in test [1] (setting [2]); 0.1993 in test [1] (setting [3]); 11.35 at CALCRL (setting [4]); 4.246 at CALCRL (setting [5]); 9.152 at CALCRL + RAMP3 (setting [6]); 8.590 at CALCRL + RAMP3 (setting [7]). For the same compound, the “IP1 Basal” value at CALCRL + RAMP3 (setting [8]) is 11.09; at CALCRL + RAMP3 (setting [9]), 9.590. The “IP1 Emax” value in test [1] (setting [2]) is reported as 0.05397; in test [1] (setting [3]) it was 11.54. The IP1 span in test [1] (setting [2]) was -0.8593; in test [1] (setting [3]), 11.34; on CALCRL (setting [4]), “Unstable”; on CALCRL + RAMP3 (setting [6]), 86.8%; on CALCRL + RAMP3 (setting [7]) it was 99.5%; at CALCRL + RAMP3 (setting [8]) it was 73.8%. The IP1 span at CALCRL + RAMP3 (setting [9]) is 92%. The maximum response (Emax) (as a rule, the size of the effect at its maximum, as opposed to the concentration needed) on CALCRL (setting [5]) was 10.5%; on CALCRL + RAMP3 (setting [6]), 96%; at CALCRL + RAMP3 (setting [7]), 108%; at CALCRL + RAMP3 (setting [8]), 84.9%; on CALCRL + RAMP3 (setting [9]), 102%. Also, on CALCRL (setting [5]), the Span was 6.24%.

Turning to `COc1ccc2c(c1)CC[C@@H]1[C@@H]2CC[C@]2(C)[C@@H](NCCCCCCN3C(=O)C=CC3=O)CC[C@@H]12` [U73122], the IP1 accumulation on MRGPRX4 (MRGX4, Basal, U73122 30uM, Fig S1e) was 3.194 and 5.28. In addition, at MRGPRX4, the “effect on nateglinide and DCA IP1 responses” value is “inhibited”; the “effect on MRGPRX4 basal IP1 activity” value is given as “abolished”.

For `C=C1C(=O)NC(C)C(=O)N(C)C(C)C(=O)NC(C(OC(=O)C(NC(C)=O)C(O)C(C)C)C(C)C)C(=O)N(C)C(C(C)OC)C(=O)OC(C)C(NC(C)=O)C(=O)OC(Cc2ccccc2)C(=O)N1C` (centres unmarked) [YM254890] (Ac-T[PhLac][NMeDha]A[NMeA][X1][NMeT](Me); ester 1-C; configuration not given here), the “IP1 accumulation with YM (Figure 1c)” value turned out to be 1.405 on MRGPRX4 (MRGPRX4 0.125 pg DNA/cell); 1.309 on MRGPRX4 (MRGPRX4 0.25 pg DNA/cell); 1.374 at MRGPRX4 (MRGPRX4 0.5 pg DNA/cell); 1.6019 on MRGPRX4 (MRGPRX4 1 pg DNA/cell); 1.692 on MRGPRX4 (MRGPRX4 2 pg DNA/cell); 1.719 in test [1] (YM 1 µM, MRGPRX4 0 pg DNA/cell, no agonist). Also, the “effect on nateglinide and DCA IP1 responses” value at MRGPRX4 is listed as “inhibited”. Moreover, the “effect on MRGPRX4 basal IP1 activity” value on MRGPRX4 is given as “abolished”.

Regarding `C[C@H]1c2cccc(O)c2C(=O)C2=C(O)[C@]3(O)C(=O)C(C(N)=O)=C(O)[C@@H](N(C)C)[C@@H]3[C@@H](O)[C@@H]21` [dox, doxycycline], in the test with Tet-On MRGPRX4 (setting [10]), the concentration giving a half-maximal response (EC50) (commonly the concentration at which the effect is half-maximal) amounted to 8.07 ng/mL, the “total expression Basal” value amounted to 0.003719, the “total expression Emax” value is recorded as 0.7930 and the “total expression logEC50” value was determined as 0.9067. The total expression span in the test with Tet-On MRGPRX4 (setting [10]) amounted to 0.7893. Further, in the test with Tet-On MRGPRX4 (Tet-On MRGPRX4 alone), the EC50 came out at 4.05 ng/mL (≈ 9.1 nM), the “total expression Basal” value amounted to 0.009273, the “total expression Emax” value was 0.9497 and the “total expression logEC50” value is given as 0.6070. In the test on Tet-On MRGPRX4 (Tet-On MRGPRX4 alone), this compound had a total expression span of 0.9404.
